Here are results for 38 molecules from ChEMBL document CHEMBL4828763, “Discovery of Potent and Selective CDK9 Degraders for Targeting Transcription Regulation in Triple-Negative Breast Cancer” (J Med Chem, 2021).

Assay [1] has as its system MDA-MB-468. The experiment in a line: Growth inhibition of human MDA-MB-468 cells assessed as cell viability measured after 4 days by WST8 assay. The note with it: MDA-MB-468, 96 h. The assay is classed as functional, cell-based. In general terms: Tetrazolium assays rely on reduction of a dye to a coloured formazan, in cell work by metabolically active cells.
Assay [2] relates to BT-549. In words: Growth inhibition of human BT-549 cells assessed as cell viability measured after 4 days by WST8 assay. The assay is classed as functional, cell-based. The following applies: BT-549, 96 h.
In assay [3] the test system is MDA-MB-231. The experiment in a line: Growth inhibition of human MDA-MB-231 cells assessed as cell viability measured after 4 days by WST8 assay. It counts as functional, cell-based. The following applies: MDA-MB-231, 96 h.
For assay [4], the target named is Protein cereblon/Cyclin-dependent kinase 9 (Homo sapiens) (UniProt P50750+Q96SW2). The experiment in a line: Protac activity at CRBN/CDK9 in human MDA-MB-231 cells assessed as induction of degradation of CDK9 at 500 nM incubated for 8 hrs by Western blot analysis. It counts as cell-based. For orientation: In western blotting, separated proteins are transferred to a membrane and probed.
Chain of Protein cereblon/Cyclin-dependent kinase 9 (Homo sapiens) (P50750 whole entry, looked up): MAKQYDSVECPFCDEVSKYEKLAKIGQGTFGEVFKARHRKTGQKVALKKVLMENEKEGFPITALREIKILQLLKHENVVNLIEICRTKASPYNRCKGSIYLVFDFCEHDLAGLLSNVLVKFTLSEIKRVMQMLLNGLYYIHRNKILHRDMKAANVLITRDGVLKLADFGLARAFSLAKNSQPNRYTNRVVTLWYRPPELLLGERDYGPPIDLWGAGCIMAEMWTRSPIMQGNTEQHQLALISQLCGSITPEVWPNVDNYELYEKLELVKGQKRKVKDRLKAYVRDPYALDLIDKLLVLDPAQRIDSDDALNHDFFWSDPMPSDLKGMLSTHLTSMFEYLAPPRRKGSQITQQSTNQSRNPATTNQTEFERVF
Chain of Protein cereblon/Cyclin-dependent kinase 9 (Homo sapiens) (Q96SW2 whole entry, looked up): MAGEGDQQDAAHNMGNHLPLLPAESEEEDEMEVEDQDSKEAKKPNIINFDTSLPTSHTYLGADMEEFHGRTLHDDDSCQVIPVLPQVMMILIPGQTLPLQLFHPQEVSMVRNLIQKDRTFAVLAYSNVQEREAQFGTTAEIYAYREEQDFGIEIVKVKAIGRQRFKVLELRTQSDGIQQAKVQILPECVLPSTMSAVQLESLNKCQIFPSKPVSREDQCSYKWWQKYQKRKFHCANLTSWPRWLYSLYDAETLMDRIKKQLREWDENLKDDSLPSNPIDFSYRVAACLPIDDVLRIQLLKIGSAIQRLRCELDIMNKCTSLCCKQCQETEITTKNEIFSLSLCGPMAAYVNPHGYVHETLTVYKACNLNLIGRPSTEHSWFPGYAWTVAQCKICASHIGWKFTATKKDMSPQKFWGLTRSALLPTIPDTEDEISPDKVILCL

Calls of active or inactive are those of the source. The rule behind the calls is not given here.

As a reminder, the IC50 is the concentration that gives 50% inhibition. With `CC(C)c1cnn2c(NCc3ccc(NC(=O)CCCCCOc4cccc5c4C(=O)N(C4CCC(=O)NC4=O)C5=O)cc3)nc(OC3CCN(C)CC3)nc12` (configuration not stated), the IC50 in assay [1] stood at 0.56 µM; in assay [2] it was 0.64 µM; in assay [3], 0.95 µM.
Take `CC(C)c1cnn2c(NCc3ccc(NC(=O)CCCCCCc4cccc5c4CN(C4CCC(=O)NC4=O)C5=O)cc3)nc(OC3CCN(C)CC3)nc12` (configuration not stated): the IC50 in assay [1] worked out at 0.13 µM; in assay [2], 0.23 µM; in assay [3] it was 0.2 µM. Further, the outcome in assay [4] was Active.
As to `CC(C)c1cnn2c(NCc3cccc(CCCCCCCOc4cccc5c4C(=O)N(C4CCC(=O)NC4=O)C5=O)c3N(C)C)nc(OC3CCN(C)CC3)nc12` (configuration not stated), the figures for the IC50 in assay [1], in assay [2] and in assay [3] were 3.45 µM, 2.01 µM and 4.16 µM, respectively.
The like results for `CC(C)c1cnn2c(NCc3cccc(NC(=O)CCCCCCNC(=O)COc4cccc5c4C(=O)N(C4CCC(=O)NC4=O)C5=O)c3)nc(OC3CCN(C)CC3)nc12` (configuration not stated) were, in that order, above 20 µM, 12.8 µM and above 20 µM.
Taken in the same sequence, the figures for `CC(C)c1cnn2c(NCc3ccccc3-n3ccnc3)nc(OC3CCN(C)CC3)nc12` were 3.92 µM, 2.26 µM and 9.29 µM.
Take `CC(C)c1cnn2c(NCc3ccc(NC(=O)CCCCCCNc4cccc5c4C(=O)N(C4CCC(=O)NC4=O)C5=O)cc3)nc(OC3CCN(C)CC3)nc12` (configuration not stated): the concentration for half-maximal inhibition (IC50) in assay [1] was determined as 0.66 µM; in assay [2] it was 0.55 µM; in assay [3], 0.53 µM.
The like results for `CC(C)c1cnn2c(NCc3ccc(NC(=O)CCCCCN4CCN(CCCCCc5cccc6c5CN(C5CCC(=O)NC5=O)C6=O)CC4)cc3)nc(OC3CCN(C)CC3)nc12` (configuration not stated) were, in that order, 0.222 µM, 0.08 µM and 0.251 µM.
Turning to `CC(C)c1cnn2c(NCc3ccc(NC(=O)CCCCCCCCCOc4cccc5c4CN(C4CCC(=O)NC4=O)C5=O)cc3)nc(OC3CCN(C)CC3)nc12` (configuration not stated), the IC50 was found to be 0.184 µM in assay [1], 0.035 µM in assay [2] and 0.137 µM in assay [3]. Further, the result in assay [4] was Active.
Take `CC(C)c1cnn2c(NCc3ccccc3)nc(OC3CCN(CCOCCNC(=O)COc4cccc5c4C(=O)N(C4CCC(=O)NC4=O)C5=O)CC3)nc12` (configuration not stated): the IC50 in assay [1], in assay [2] and in assay [3] was above 20 µM each time.
As for `CC(C)c1cnn2c(NCc3ccc(NC(=O)CCCCCCCCOc4cccc5c4CN(C4CCC(=O)NC4=O)C5=O)cc3)nc(OC3CCN(C)CC3)nc12` (configuration not stated), the IC50 came to 0.3 µM in assay [1], 0.2 µM in assay [2] and 0.17 µM in assay [3]. Also, the result in assay [4] was Active.
As to `CC(C)c1cnn2c(NCc3cccc(CCCCCCNC(=O)COc4cccc5c4C(=O)N(C4CCC(=O)NC4=O)C5=O)c3)cc(NCCCCCCN)nc12` (configuration not stated), the figures for the IC50 in assay [1], in assay [2] and in assay [3] were 16.3 µM, 12.8 µM and above 20 µM, respectively.
The like results for `CC(C)c1cnn2c(NCc3ccccc3)cc(NCCCCCCNCCOCCNC(=O)COc3cccc4c3C(=O)N(C3CCC(=O)NC3=O)C4=O)nc12` (configuration not stated) were, in that order, above 20 µM, above 20 µM and above 20 µM.
Consider `CC(C)c1cnn2c(NCc3ccccc3)nc(OC3CCN(CCOCCOCCNC(=O)COc4cccc5c4C(=O)N(C4CCC(=O)NC4=O)C5=O)CC3)nc12` (configuration not stated), for which the IC50 in assay [1] was above 20 µM; in assay [2] it was 9.88 µM; in assay [3] it was above 20 µM.
As to `CC(C)c1cnn2c(NCc3ccc(NC(=O)CCCCCOc4cccc5c4C(=O)N(C4CCC(=O)NC4=O)C5)cc3)nc(OC3CCN(C)CC3)nc12` (configuration not stated), the results for the IC50 in assay [1], in assay [2] and in assay [3] were 0.47 µM, 0.37 µM and 0.57 µM, respectively.
The like results for `CC(C)c1cnn2c(NCc3ccccc3)cc(NCCCCCCNCCOCCOCCOCCNC(=O)COc3cccc4c3C(=O)N(C3CCC(=O)NC3=O)C4=O)nc12` (configuration not stated) were, in that order, above 20 µM, above 20 µM and above 20 µM.
Taken in the same sequence, the figures for `CC(C)c1cnn2c(NCc3ccccc3-n3ccnc3)nc(OC3CCN(CCOCCNC(=O)COc4cccc5c4C(=O)N(C4CCC(=O)NC4=O)C5=O)CC3)nc12` (configuration not stated) were 15.8 µM, above 20 µM and above 20 µM.
Consider `CC(C)c1cnn2c(NCc3ccc(CCCCCCNC(=O)COc4cccc5c4C(=O)N(C4CCC(=O)NC4=O)C5=O)cc3)cc(NCCCCCCN)nc12` (configuration not stated), for which the IC50 in assay [1] is 10.3 µM; in assay [2], 12.9 µM; in assay [3] it was 16.6 µM.
For the molecule `CC(C)c1cnn2c(NCc3ccc(NC(=O)CCCN4CCN(CCCc5cccc6c5CN(C5CCC(=O)NC5=O)C6=O)CC4)cc3)nc(OC3CCN(C)CC3)nc12` (configuration not stated), the IC50 is 0.59 µM in assay [1], 0.58 µM in assay [2] and 0.9 µM in assay [3].
On to `CC(C)c1cnn2c(NCc3ccc(CCCCCCNC(=O)COc4cccc5c4C(=O)N(C4CCC(=O)NC4=O)C5=O)cc3N(C)C)nc(OC3CCN(C)CC3)nc12` (configuration not stated), for which the values for the IC50 in assay [1], in assay [2] and in assay [3] were 5.24 µM, 8.39 µM and 5.28 µM, respectively.
For the molecule `CC(C)c1cnn2c(NCc3ccc(NC(=O)CCCN4CCN(CCCCCc5cccc6c5CN(C5CCC(=O)NC5=O)C6=O)CC4)cc3)nc(OC3CCN(C)CC3)nc12` (configuration not stated), the IC50 in assay [1] was found to be 0.34 µM; in assay [2] it was 0.19 µM; in assay [3], 0.46 µM.
Taken in the same sequence, the figures for `CC(C)c1cnn2c(NCc3ccccc3N(C)C)nc(OC3CCN(CCOCCNC(=O)COc4cccc5c4C(=O)N(C4CCC(=O)NC4=O)C5=O)CC3)nc12` (configuration not stated) were above 20 µM, above 20 µM and above 20 µM.
The like results for `CC(C)c1cnn2c(NCc3ccc(CCCCCCCOc4cccc5c4C(=O)N(C4CCC(=O)NC4=O)C5=O)cc3)nc(OC3CCN(C)CC3)nc12` (configuration not stated) were, in that order, 3.22 µM, 2.06 µM and 4.32 µM.
The like results for `CC(C)c1cnn2c(NCc3cc(NC(=O)CCCCCCNC(=O)COc4cccc5c4C(=O)N(C4CCC(=O)NC4=O)C5=O)ccc3N(C)C)nc(OC3CCN(C)CC3)nc12` (configuration not stated) were, in that order, above 20 µM, above 20 µM and above 20 µM.
For `CC(C)c1cnn2c(NCc3ccccc3)cc(NCCCCCCN)nc12`, the figures for the IC50 in assay [1], in assay [2] and in assay [3] were 16.3 µM, 12.8 µM and 18.5 µM, respectively.
Taken in the same sequence, the figures for `CC(C)c1cnn2c(NCc3ccccc3N(C)C)nc(OC3CCN(CCOCCOCCOCCNC(=O)COc4cccc5c4C(=O)N(C4CCC(=O)NC4=O)C5=O)CC3)nc12` (configuration not stated) were above 20 µM, above 20 µM and above 20 µM.
The like results for `CC(C)c1cnn2c(NCc3ccccc3N(C)C)nc(OC3CCN(C)CC3)nc12` were, in that order, 8.78 µM, 1.03 µM and 11.9 µM.
Taken in the same sequence, the figures for `CC(C)c1cnn2c(NCc3ccccc3-n3ccnc3)nc(OC3CCN(CCOCCOCCOCCNC(=O)COc4cccc5c4C(=O)N(C4CCC(=O)NC4=O)C5=O)CC3)nc12` (configuration not stated) were above 20 µM, 21.5 µM and above 20 µM.
In the case of `CC(C)c1cnn2c(NCc3ccc(NC(=O)N4CCN(CCCCCc5cccc6c5CN(C5CCC(=O)NC5=O)C6=O)CC4)cc3)nc(OC3CCN(C)CC3)nc12` (configuration not stated), the IC50 in assay [1] was 0.098 µM; in assay [2] it was 0.074 µM; in assay [3], 0.065 µM.
The like results for `CC(C)c1cnn2c(NCc3ccc(NC(=O)CCCCCCNC(=O)COc4cccc5c4C(=O)N(C4CCC(=O)NC4=O)C5=O)cc3)nc(OC3CCN(C)CC3)nc12` (configuration not stated) were, in that order, 1.45 µM, 1.63 µM and 1.55 µM.
With `CC(C)c1cnn2c(NCc3ccc(CCCOCCOCCOc4cccc5c4C(=O)N(C4CCC(=O)NC4=O)C5=O)cc3)nc(OC3CCN(C)CC3)nc12` (configuration not stated), the values for the IC50 in assay [1], in assay [2] and in assay [3] were 3.37 µM, 1.57 µM and 4.45 µM, respectively.
Take `CC(C)c1cnn2c(NCc3cc(CCCCCCNC(=O)COc4cccc5c4C(=O)N(C4CCC(=O)NC4=O)C5=O)ccc3N(C)C)nc(OC3CCN(C)CC3)nc12` (configuration not stated): the IC50 in assay [1] came out at 17.9 µM; in assay [2], 12.6 µM; in assay [3] it was 12.6 µM.
As for `CC(C)c1cnn2c(NCc3ccc(CCCCCCCOc4cccc5c4C(=O)N(C4CCC(=O)NC4=O)C5=O)cc3N(C)C)nc(OC3CCN(C)CC3)nc12` (configuration not stated), the IC50 in assay [1] turned out to be 2.87 µM; in assay [2], 4.11 µM; in assay [3] it was 4.16 µM.
For `CC(C)c1cnn2c(NCc3ccc(NC(=O)CCCCCN4CCN(CCCc5cccc6c5CN(C5CCC(=O)NC5=O)C6=O)CC4)cc3)nc(OC3CCN(C)CC3)nc12` (configuration not stated), the concentration for half-maximal inhibition (IC50) in assay [1] amounted to 0.24 µM; in assay [2] it was 0.19 µM; in assay [3], 0.9 µM.
Turning to `CC(C)c1cnn2c(NCc3ccc(NC(=O)COCCOCCOc4cccc5c4C(=O)N(C4CCC(=O)NC4=O)C5=O)cc3)nc(OC3CCN(C)CC3)nc12` (configuration not stated), the IC50 in assay [1] was 4.59 µM; in assay [2], 3.78 µM; in assay [3] it was 9.2 µM.
As to `CC(C)c1cnn2c(NCc3ccc(NC(=O)CCCCCCNc4cccc5c4C(=O)N(C4CCC(=O)NC4=O)C5=O)cc3N(C)C)nc(OC3CCN(C)CC3)nc12` (configuration not stated), the IC50 turned out to be 4.89 µM in assay [1], 2.66 µM in assay [2] and 4.26 µM in assay [3].
With `CC(C)c1cnn2c(NCc3ccc(NC(=O)COCCOCCOCCOc4cccc5c4C(=O)N(C4CCC(=O)NC4=O)C5=O)cc3)nc(OC3CCN(C)CC3)nc12` (configuration not stated), the IC50 was found to be 4.37 µM in assay [1], 4.69 µM in assay [2] and 10.3 µM in assay [3].
The like results for `CC(C)c1cnn2c(NCc3ccc(NC(=O)CCCCCCNC(=O)COc4cccc5c4C(=O)N(C4CCC(=O)NC4=O)C5=O)cc3N(C)C)nc(OC3CCN(C)CC3)nc12` (configuration not stated) were, in that order, above 20 µM, 14.3 µM and above 20 µM.
Taken in the same sequence, the figures for `CC(C)c1cnn2c(NCc3ccccc3)nc(OC3CCN(C)CC3)nc12` were 3.07 µM, 0.53 µM and 3.01 µM.
